The results in this text go back to patent publication US20260217652A1, “PHENYL-SUBSTITUTED HETEROARYL COMPOUND AND PHARMACEUTICAL COMPOSITION COMPRISING SAME, PREPARATION METHOD THEREFOR AND USE THEREOF” (SHANGHAI MEIYUE BIOTECH DEVELOPMENT CO., LTD., priority 2023, published 2026).

A short description of series [1]: Pharmacokinetic evaluation in mice. The series is classed as in vivo. The conditions noted are these: mouse, plasma; for AUC(0-t): read-out: Area under curve AUC0-24 h; for half-life: read-out: Half-life T1/2 (converted). On the procedure: The compound was weighed and dissolved in a mixed solvent of DMAC: Solutol: PBS (1:1:8. After intravenous/gastric administration to mice, whole blood ([…]) was collected at 0.083, 0.25, 0.5, 1, 2, 4, 7, and 24 hours. The samples were anticoagulated with EDTA-K2, immediately centrifuged at 4000 rpm for 5 minutes at 4° C., and the supernatant was frozen in a −80° C. refrigerator. Plasma sample processing: The samples were precipitated with an internal standard-containing CH3CN precipitant, followed by centrifugation at 12700 rpm for 10 min. The supernatant was collected and analyzed by LC-MS/MS (AB Triple Quard 5500) to obtain the plasma drug concentration. The parameters were calculated using a non-compartmental model in Winnolin version 8.1.

Series [2] can be described thus: In vitro liver microsome stability, mouse. Format: in vitro ADME. The conditions noted are these: liver microsomes, 0.5 mg/mL microsomes, 1 μM compound, NADPH, 37° C., read-out: Mouse liver microsomes Half-life T1/2. In a few lines: (§1)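 Rat, mouse or human liver microsomes (0.5 mg/mL) in 50 mM K2HPO4 buffer with 1 μM compound, preincubated 5 min at 37° C., reaction started with NADPH. Sampled at 0, 10, 30, 60 and 90 min, quenched in acetonitrile, remaining compound by LC-MS/MS; T1/2 calculated. No-NADPH controls included.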
A general note: Microsomes from liver hold many membrane-bound enzymes, among them those of drug oxidation.

In series [3] the target is T1, p38 MAPK/MK2 (Homo sapiens, UniProt Q16539).
T1 construct: purchased Carna (p38α); Abcam (MK2) 04-152; 79910
Put plainly: In vitro activity assay of p38 MAPK/MK2 (Z-LYTE kinase assay kit). Format: biochemical. The settings on record: active p38α, inactive MK2, Ser/Thr 4; 1-hour reaction at 20° C. In outline:
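FRET-based Z-LYTE assay; compound tested from […] top concentration, 5-fold serial dilution, 8 points, duplicate wells, 1% DMSO. Kinase reaction 1 h at 20° C, then development reagent 1 h at room temperature; fluorescence read at Ex 400/Em 445 and 520 nm. IC50 from concentration-effect curve fit.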

In series [4] the target is T2, p38 MAPK/MK5 (Homo sapiens, UniProt Q16539).
T2 construct: purchased Carna (p38α); Abcam (MK5) 04-152; 217826
Put plainly: In vitro activity assay of p38 MAPK/MK5 (Z-LYTE kinase assay kit). The conditions noted are these: active p38α, inactive MK5, Ser/Thr 4; 4-hour reaction at 20° C. The series is classed as biochemical. In outline:
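Z-LYTE FRET kinase assay, compound from […] top concentration in 1% DMSO, 5-fold serial dilution over 8 points in duplicate. Kinase reaction 4 h at 20° C, then development reagent 1 h at room temperature before stop. Emission ratio (Ex 400, Em 445/520 nm); IC50 from concentration-effect curve fit.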

For series [5], the system named is TNF-α in human PBMC cells. Put plainly: In vitro TNF-α activity assay in human PBMC cell supernatant (LPS, ELISA). The series is classed as cell-based. The conditions noted are these: Homo sapiens, PBMC, 24 h, LPS 100 ng/mL, read-out: p38 MAPK/TNF-α IC50. In a few lines: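 Fresh human PBMCs (2×10^5/well) were pretreated 1 h with compound in a 6-point, 5-fold dilution series (0.4% DMSO final). They were then stimulated with 100 ng/mL LPS for 24 h at 37 °C. Supernatant TNF-α was measured by ELISA and IC50 was derived from concentration-response fitting.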

A short description of series [6]: In vitro liver microsome stability, human. The series is classed as in vitro ADME. The settings on record: liver microsomes, 0.5 mg/mL microsomes, 1 μM compound, NADPH, 37° C., read-out: Human liver microsomes Half-life T1/2. In a few lines: as §1
[7] abbreviates: intravenous injection group 1 mg/kg.
The mark [8] stands for this setting: po, intragastric administration group 5 mg/kg.

pIC50: −log10 of the molar value. Like-named read-outs stand apart in the source and are kept apart here.

T1 sequence (Q16539 whole entry): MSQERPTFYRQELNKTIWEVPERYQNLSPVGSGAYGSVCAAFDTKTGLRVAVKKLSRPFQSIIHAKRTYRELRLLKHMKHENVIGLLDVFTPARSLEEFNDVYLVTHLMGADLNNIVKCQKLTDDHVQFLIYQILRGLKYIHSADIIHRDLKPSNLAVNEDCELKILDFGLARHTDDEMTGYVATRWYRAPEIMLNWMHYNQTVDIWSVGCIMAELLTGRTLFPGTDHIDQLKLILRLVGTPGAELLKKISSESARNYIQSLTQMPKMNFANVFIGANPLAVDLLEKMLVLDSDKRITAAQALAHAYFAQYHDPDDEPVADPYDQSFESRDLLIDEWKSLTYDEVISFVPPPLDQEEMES
T1 sequence (P49137 whole entry partner): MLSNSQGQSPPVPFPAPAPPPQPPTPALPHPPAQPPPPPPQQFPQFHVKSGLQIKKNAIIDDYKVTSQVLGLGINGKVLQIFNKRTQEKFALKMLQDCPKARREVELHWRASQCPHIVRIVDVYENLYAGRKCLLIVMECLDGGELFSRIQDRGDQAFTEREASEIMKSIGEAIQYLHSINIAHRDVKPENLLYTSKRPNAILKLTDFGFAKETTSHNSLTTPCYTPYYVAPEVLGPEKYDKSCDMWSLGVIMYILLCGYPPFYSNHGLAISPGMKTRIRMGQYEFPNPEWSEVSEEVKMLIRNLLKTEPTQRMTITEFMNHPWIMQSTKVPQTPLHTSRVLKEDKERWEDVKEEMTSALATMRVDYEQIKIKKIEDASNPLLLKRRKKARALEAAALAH
T2 sequence (Q16539 whole entry): as the sequence (Q16539 whole entry) above

In general, clearance refers to the volume of plasma or blood freed of the substance per unit of time. The Vd is a proportionality between amount in the body and measured concentration, not a real space. Broadly, the bioavailability is dose-corrected exposure relative to a reference, in per cent. For the compound `CNC(=O)c1cccc(-c2ncc(C)c(-n3c(C)cc(OCc4ncc(F)cc4F)c(Cl)c3=O)c2F)c1` [Compound 31-P1], the AUC(0-t) in series [1] (setting [7]) stood at 1.36 µg·h/mL; in series [1] (setting [8]), 2.07 µg·h/mL. Also, in series [1] (intravenous injection group 1 mg/kg, read-out: Clearance CL (converted)), the clearance is 0.739 L/h/kg. Besides, the half-life was 0.57 h in series [1] (setting [7]) and 3.24 h in series [1] (setting [8]). Moreover, the C0 in series [1] (intravenous injection group 1 mg/kg, read-out: Initial concentration C0) was 2.15 µg/mL. The Vd in series [1] (intravenous injection group 1 mg/kg, read-out: Volume of distribution Vd) was determined as 0.47 L/kg. The bioavailability in series [1] (po, intragastric administration group 5 mg/kg, read-out: Bioavailability F %) was 30.5%. In series [1] (po, intragastric administration group 5 mg/kg, read-out: Maximum concentration Cmax), the Cmax amounted to 0.979 µg/mL. Also, the half-life at 1 μM was 1.79 h in series [2] and > 4.66 h in series [6]. Also, the pIC50 in series [3] was 8.55; in series [4], 5.36; in series [5], 8.42.
